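1) Cells in 96-well plates. 2) Compound, 48 h, 5 concentrations. 3) Linear interpolation between surrounding doses. 4) Unreached endpoint = highest concentration. GI50 = concentration required for 50% inhibition of growth.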 Activity calls are given as the source filed them. Rule as the data show it: active = GI50 up to about 1.1 µM and inactive = higher.

Test systems include A498; COLO 205; DU-145; EKVX; HCT-15; HT-29; M14; NCI-H460; OVCAR-4; OVCAR-8; PC-3; SF-268; SF-295; SK-MEL-5; SNB-19; SW-620; T47D; TK-10; UACC-62.
What all share (experiment): inhibition of tumour cell growth, NCI panel, 48 h

For the molecule `O=C1C(N2CCN(CCOCCO)CC2)=C(Cl)C(=O)c2ncccc21`, the GI50 was > 10 µM (inactive) in the test on A498; 8.28 µM (inactive) in the test on COLO 205; 52.7 µM (inactive) with DU-145; 19.6 µM (inactive) with EKVX; 18.1 µM in the test on HCT-15; 22.6 µM (inactive) in the test on HT-29. The GI50 in the test on M14 was 20.8 µM (inactive); in the test on NCI-H460, 75.2 µM (inactive); in the test on OVCAR-4 it was 20.3 µM (inactive); in the test on OVCAR-8 it was 18.1 µM (inactive); with PC-3, 20.7 µM (inactive); in the test with SF-268 it was 20.6 µM (inactive). Besides, the GI50 in the test on SF-295 was > 10 µM (inactive); with SK-MEL-5 it was 16.6 µM (inactive); in the test with SNB-19, > 10 µM (inactive); in the test with SW-620 it was 23 µM (inactive); in the test on T47D, 2.58 µM (inactive); with TK-10, 29.4 µM (inactive). Besides, the GI50 in the test with UACC-62 was 21.5 µM (inactive).

Regarding `N#CC(C#N)=C/C=C/c1c(Cl)cccc1Cl`, the GI50 is 2.99 µM (inactive) with A498; 1.73 µM (inactive) in the test with COLO 205; 1.71 µM (inactive) with DU-145; 3.33 µM (inactive) with EKVX; 1.91 µM in the test on HCT-15; 1.7 µM (inactive) in the test with HT-29. Besides, the GI50 with M14 was 1.69 µM (inactive); in the test on NCI-H460, 1.87 µM (inactive); with OVCAR-4, 1.72 µM (inactive); in the test on OVCAR-8, 1.53 µM (inactive); with PC-3 it was 1.81 µM (inactive); in the test on SF-268 it was 1.92 µM (inactive). Moreover, the GI50 with SF-295 was 2.07 µM (inactive); in the test with SK-MEL-5, 1.85 µM (inactive); with SNB-19, 3.78 µM (inactive); with SW-620 it was 1.92 µM (inactive); with T47D, 2.24 µM (inactive); in the test with TK-10, 2.7 µM (inactive). Also, the GI50 with UACC-62 was 1.5 µM (inactive).

On to `Cn1c(=O)c2c(nc(NCCCCl)n2CC(=O)O)n(C)c1=O`, for which the GI50 in the test with A498 is > 100 µM (inactive); in the test on COLO 205, > 100 µM (inactive); with DU-145, > 100 µM (inactive); with EKVX, > 100 µM (inactive); in the test on HCT-15, more than 100 µM; in the test on HT-29 it was > 100 µM (inactive). For the same molecule, the GI50 in the test with M14, with NCI-H460, with OVCAR-4, with OVCAR-8, with PC-3 and in the test on SF-268 was > 100 µM (inactive) throughout. The GI50 with SF-295, in the test on SK-MEL-5, with SNB-19, in the test on SW-620, in the test with T47D and in the test with TK-10 was > 100 µM (inactive) each time. For the same molecule, in the test on UACC-62, the GI50 is > 100 µM (inactive).

On to `CC(=O)O[C@H]1C(=O)[C@@]2(C)C(C(OC(=O)c3ccccc3)[C@]3(O)CC(OC(=O)C(O)C(NC(=O)c4ccccc4)c4ccc(F)cc4)C(C)=C1C3(C)C)[C@]1(OC(C)=O)CO[C@@H]1C[C@@H]2O` (some centres undefined), for which the GI50 is < 0.001 µM (active) in the test with A498; < 0.001 µM (active) with COLO 205; 0.00126 µM (active) in the test with DU-145; 0.00857 µM (active) in the test on EKVX; 0.0129 µM in the test with HCT-15; < 0.001 µM (active) with HT-29. For the same molecule, the GI50 with M14 was 0.00164 µM (active); in the test on NCI-H460 it was < 0.001 µM (active); in the test with OVCAR-4 it was 0.0904 µM (active); with OVCAR-8, 0.00164 µM (active); in the test on PC-3, < 0.001 µM (active); in the test with SF-268 it was < 0.001 µM (active). Besides, the GI50 was 0.00401 µM (active) in the test with SF-295; 0.00375 µM (active) with SK-MEL-5; 0.00252 µM (active) with SNB-19; < 0.001 µM (active) with SW-620; 0.00966 µM (active) in the test on T47D; 0.0296 µM (active) with TK-10. Besides, the GI50 in the test with UACC-62 is 0.00138 µM (active).

`c1c[nH]c(-c2cccc3nsnc23)c1`: the GI50 with A498 is 61.7 µM (inactive); in the test with COLO 205, 13.5 µM (inactive); in the test on DU-145, > 100 µM (inactive); with EKVX, 33 µM (inactive); with HCT-15, 15.7 µM; with HT-29, 53.3 µM (inactive). Also, the GI50 in the test on M14 was > 100 µM (inactive); with NCI-H460 it was 65.2 µM (inactive); in the test with OVCAR-4, 38.8 µM (inactive); with OVCAR-8, 78 µM (inactive); in the test on PC-3, 95.9 µM (inactive); in the test with SF-268 it was > 100 µM (inactive). Moreover, the GI50 in the test on SF-295 was > 100 µM (inactive); with SK-MEL-5, > 100 µM (inactive); in the test on SNB-19, > 100 µM (inactive); with SW-620, > 100 µM (inactive); with T47D, 3.78 µM (inactive); with TK-10, 19.3 µM (inactive). For the same molecule, the GI50 with UACC-62 is 71.9 µM (inactive).

With `O=C(Nc1ccccc1)N(CCN(Cc1ccccc1)C(=O)Nc1ccccc1)CCN(Nc1ccccc1)C(=O)Nc1ccccc1`, the GI50 in the test on A498 is > 100 µM (inactive); in the test with COLO 205, > 100 µM (inactive); in the test with DU-145, > 100 µM (inactive); in the test on EKVX it was > 100 µM (inactive); in the test with HCT-15, more than 100 µM; in the test on HT-29 it was > 100 µM (inactive). For the same molecule, the GI50 is 92.9 µM (inactive) in the test with M14; > 100 µM (inactive) in the test with NCI-H460; > 100 µM (inactive) with OVCAR-4; > 100 µM (inactive) in the test with OVCAR-8; > 100 µM (inactive) in the test with PC-3; > 100 µM (inactive) in the test on SF-268. Besides, the GI50 in the test with SF-295, in the test on SK-MEL-5, with SNB-19, in the test with SW-620, in the test with T47D and with TK-10 was > 100 µM (inactive) throughout. The GI50 in the test on UACC-62 was > 100 µM (inactive).

In the case of `CO[C@H](C)[C@](O)(C(=O)OCC1=CCN2CC[C@@H](O)[C@H]12)C(C)C`, the GI50 in the test with A498 was > 100 µM (inactive); in the test on COLO 205, > 100 µM (inactive); in the test with DU-145, > 100 µM (inactive); in the test with EKVX, > 100 µM (inactive); in the test on HCT-15, 55.2 µM; with HT-29, > 100 µM (inactive). Moreover, the GI50 in the test on M14 is > 100 µM (inactive); with NCI-H460, 28.5 µM (inactive); in the test on OVCAR-4, > 100 µM (inactive); with OVCAR-8 it was > 100 µM (inactive); in the test with PC-3 it was > 100 µM (inactive); in the test with SF-268, > 100 µM (inactive). Also, the GI50 in the test with SF-295, with SK-MEL-5, with SNB-19, with SW-620, in the test with T47D and in the test with TK-10 was > 100 µM (inactive) each time. Also, the GI50 in the test on UACC-62 is > 100 µM (inactive).

For `CNC1=Nc2ccccc2C(=O)N2CSCC12` (centres undefined), the GI50 with A498 was > 100 µM (inactive); in the test on COLO 205, > 100 µM (inactive); in the test with DU-145, > 100 µM (inactive); in the test on EKVX, > 100 µM (inactive); in the test on HCT-15 it was more than 100 µM; in the test on HT-29 it was > 100 µM (inactive). Also, the GI50 in the test with M14, with NCI-H460, with OVCAR-4, in the test on OVCAR-8, in the test on PC-3 and in the test with SF-268 was > 100 µM (inactive) each time. In addition, the GI50 in the test with SF-295, in the test with SK-MEL-5, with SNB-19, with SW-620, with T47D and in the test on TK-10 was > 100 µM (inactive) in each case. Moreover, the GI50 with UACC-62 is > 100 µM (inactive).

Take `O=C(O)C(O)C(O)C(O)C(=O)CO` (centres undefined): the GI50 was > 100 µM (inactive) in the test with A498; > 100 µM (inactive) in the test on COLO 205; > 100 µM (inactive) in the test on DU-145; > 100 µM (inactive) in the test on EKVX; more than 100 µM in the test on HCT-15; > 100 µM (inactive) in the test with HT-29. The GI50 in the test with M14, in the test with NCI-H460, in the test on OVCAR-4, in the test with OVCAR-8, with PC-3 and in the test with SF-268 was > 100 µM (inactive) each time. The GI50 in the test with SF-295, in the test with SK-MEL-5, in the test on SNB-19, in the test on SW-620, in the test with T47D and in the test on TK-10 was > 100 µM (inactive) each time. Moreover, the GI50 in the test on UACC-62 is > 100 µM (inactive).

For `O=c1[nH]c(-n2[nH]c3c(c2=O)CCCC3)nc(O)c1-c1ccccc1`, the GI50 in the test with A498 was > 100 µM (inactive); in the test on COLO 205, > 100 µM (inactive); in the test with DU-145, > 100 µM (inactive); in the test with EKVX, > 100 µM (inactive); in the test with HCT-15, more than 100 µM; in the test on HT-29, > 100 µM (inactive). Moreover, the GI50 in the test on M14, in the test with NCI-H460, with OVCAR-4, in the test on OVCAR-8, in the test on PC-3 and with SF-268 was > 100 µM (inactive) throughout. The GI50 in the test with SF-295, with SK-MEL-5, in the test with SNB-19, in the test on SW-620, with T47D and in the test on TK-10 was > 100 µM (inactive) in each case. Moreover, in the test on UACC-62, the GI50 is > 100 µM (inactive).

Consider `COC1CCC(OS(C)(=O)=O)C(C)O1` (centres undefined), for which the GI50 with A498 is > 10 µM (inactive); in the test on COLO 205, > 10 µM (inactive); with DU-145 it was > 10 µM (inactive); with EKVX it was > 10 µM (inactive); with HCT-15, more than 10 µM; in the test on HT-29, > 10 µM (inactive). The GI50 in the test on M14, with NCI-H460, in the test on OVCAR-4, with OVCAR-8, with PC-3 and in the test with SF-268 was > 10 µM (inactive) throughout. Also, the GI50 in the test on SF-295, in the test on SK-MEL-5, in the test on SNB-19, in the test with SW-620, in the test with T47D and with TK-10 was > 10 µM (inactive) throughout. Further, the GI50 in the test on UACC-62 was > 10 µM (inactive).

(Values after ChEMBL document CHEMBL1201862, “PubChem BioAssay data set” (2004).)
